Measurements reported in EP2966448B1, “METHOD FOR THE PREDICTION OR PROGNOSIS OF THE RESPONSE OF A HUMAN SUBJECT SUFFERING FROM CANCER TO TREATMENT WITH AN ANTAGONIST OF THE NK1 RECEPTOR” (priority 2013, dated 2014).
Where two headings read alike, the source gives them in different places.

Legend:
Glioma = experiment: Inhibition of primary tumor cell cultures (48 hours) vs NK1 receptor immunostaining (Example 1); type: cell-based; conditions: Homo sapiens, 1 micromolar, read-out: Percentage of inhibition of cell cultures
Procedure: (§1) Cell cultures. To obtain tumor cells from human primary tumors we used the method described in De Bari et al. (De Bari et al. 2001). Briefly, small pieces of the tumors were digested into a hyaluronidase solution (Sigma-Aldrich, USA) at a concentration of 1 mg/ml during 15 minutes at 37°C, and then they were treated with 6 mg/ml of collagenase type IV (Invitrogen) during 2 hours at 37°C. Consecutively, cells were washed, and resuspended in the DMEM culture medium with high concentration of glucose (Dulbecco's Modified Eagle's Medium, Invitrogen) supplemented with 1% of antibiotics-antimycotics (Invitrogen) and with 1% of sodium pyruvate (Invitrogen), and the cells were seeded in culture slides at a concentration of 10.000 cells per square centimeter. When cells reached confluence, the adherent cells were separated using sterile trypsin at 0,5% (Invitrogen) and they were used among passages 3 and 9. For the assays shown next, tumor cells were seeded on slides at a concentration of 25.000 cells per well. A total of 6 wells containing the tumor cells were used as survival control. […] All the cultures were kept during 48 hours and later on recollected for their analysis.
(§2) Immunohistochemistry techniques. The presence of NK1 receptors was also analyzed using immunohistochemistry techniques. Briefly, a sample of each of the cultures of the cell lines used in the present invention, was centrifuged (5 minutes at 1.500 rpm) and the pellet obtained was dehydrated using increasing concentrations of ethanol and, finally, xylol. Then, said dehydrated samples were embedded in paraffin, creating a block of cells. Such paraffin blocks were cut with a microtome at 5 microns thickness, and were placed on microscope slides adequate to perform immunohistochemistry techniques. Consecutively, they were de-paraffinized by immersing them in xylol, to be finally hydrated using a solution containing decreasing concentrations of ethanol, and finally submerged them into water. […] After this, the samples were left to cool down at room temperature for 10 minutes. The endogenous peroxidase activity was blocked with 3% peroxide of hydrogen for 30 minutes at room temperature. After washing the samples with 0.05 M of Tris buffer, they were incubated with 10% non-immune pork serum at for 30 minutes at room temperature. To analyze the expression of NK1 receptors, the cellular samples were incubated in the presence of anti-NK1 antibodies (S8305, Sigma-Aldrich) diluted 1:1000, overnight at 4°C. Afterwards, the samples were washed in Tris buffer 0.05 M at room temperature. The next step was the addition of Envision System-HRP (Dako) reagents for 30 minutes at room temperature. Then, the samples were washed again in Tris buffer 0.05 M and the immunoreactivity was visualized through light microscopy with a chromogenic solution containing 3,3'-Diaminobenzidine (DAB+; Dako, USA). To differentiate the cell nuclei, they were slightly stained with hematoxylin. As negative control, it was used samples not incubated with the primary antibody anti-NK1, which was replaced by non-immune serum. All the samples were evaluated.
(§3) To value the immunostaining in each of the cases six cuts were performed to be analyzed by the immunohistochemistry technique. In each of the six cuts, it was counted cells in 20 fields (magnification 400x) using an Olympus microscope (model CX31). In each field it was counted the total number of cells and the number of cells presenting immunostaining, calculating afterwards the percentage of cells which presented immunostaining.

[1] = tested on: Thyroid carcinoma (papillary carcinoma); experiment: Inhibition of primary tumor cell cultures vs Kras mutation (Example 2); type: cell-based, human; conditions: Homo sapiens, Cases with Kras mutated; 100 micromolar; read-out: Percentage of inhibition of cell cultures
Procedure: (§4) To obtain tumor cells from human primary tumors we used the method described in De Bari et al. (De Bari et al. 2001). Briefly, small pieces of the tumors were digested into a hyaluronidase solution (Sigma-Aldrich, USA) at a concentration of 1 mg/ml during 15 minutes at 37°C, and then they were treated with 6 mg/ml of collagenase type IV (Invitrogen) during 2 hours at 37°C. Consecutively, cells were washed, and resuspended in the DMEM culture medium with high concentration of glucose (Dulbecco's Modified Eagle's Medium, Invitrogen) supplemented with 1% of antibiotics-antimycotics (Invitrogen) and with 1% of sodium pyruvate (Invitrogen), and the cells were seeded in culture slides at a concentration of 10.000 cells per square centimeter. When cells reached confluence, the adherent cells were separated using sterile trypsin at 0,5% (Invitrogen) and they were used among passages 3 and 9. For the assays shown next, tumor cells were seeded on slides at a concentration of 25.000 cells per well. A total of 6 wells containing the tumor cells were used as survival control. […] All the cultures were kept during 48 hours and later on recollected for their analysis.
(§5) In each case the presence or not of mutations in K-ras gene was determined.
(§6) To determine the existence of mutations in the K-ras gene DNA from cancer tumor cells was extracted from samples obtained from the different cancer tumor cells, using DNA extraction kits from Takara (Madison, WI, US) or Ambion (Huntingdon, Cambridgeshire, United Kingdom), following the manufacturer's instructions, and as it has been previously published (Di Fiore F, et al. 2007). Consecutively it was analyzed by sequencing the exon 2 of the KRAS gene, , by means of PCR amplification from previously extracted cancer tumor DNA, using the following sense primer (SEQ ID NO. 15): 5'-[sequence]-3' and anti-sense primer (SEQ ID NO. 16): 5'-[sequence]-3'. After the purification using the Qiagen extraction kit, the PCR products were sequenced using the Big Dye Terminator Kit V3.1 (Applied Biosystems, Foster City, CA, U.S.) and an ABI Prism 377 or 3100 DNA sequencer (Applied Biosystems). The presence of a heterozygous mutation in the KRAS gene in cancer tumor cells of the cultures was defined as the appearance of a mutant peak of a height of at least a third of the wild type. All the sequence analysis were executed at least twice in two independent PCR.
(§7) The antibody against NK1 receptor (Table 16) was used at 1/50 concentration. The percentages of inhibition are expressed in percentage of variation in relation to control ± standard deviation.

[2] = tested on: human primary tumor cells; experiment: Inhibition of primary tumor cell cultures vs amplification of the gene encoding the NK1 receptor (Example 6; tumor type per table line); type: cell-based; conditions: Non Hodgkin Lymphoma T (diffuse T cell lymphoma); Cases with amplification of the gene that encodes for the NK1 receptor; 100 micromolar
Procedure: Cell cultures. […] Briefly, small pieces of the tumors were digested into a hyaluronidase solution (Sigma-Aldrich, USA) at a concentration of 1 mg/ml during 15 minutes at 37°C, and then they were treated with 6 mg/ml of collagenase type IV (Invitrogen) during 2 hours at 37°C. Consecutively, cells were washed, and resuspended in the DMEM culture medium with high concentration of glucose (Dulbecco's Modified Eagle's Medium, Invitrogen) supplemented with 1% of antibiotics-antimycotics (Invitrogen) and with 1% of sodium pyruvate (Invitrogen), and the cells were seeded in culture slides at a concentration of 10.000 cells per square centimeter. When cells reached confluence, the adherent cells were separated using sterile trypsin at 0,5% (Invitrogen) and they were used among passages 3 and 9. For the assays shown next, tumor cells were seeded on slides at a concentration of 25.000 cells per well. A total of 6 wells containing the tumor cells were used as survival control. […] All the cultures were kept during 48 hours and later on recollected for their analysis.
The presence or absence of the amplification of the gene encoding for the NK1 receptor was determined, and then the cells were cultured in the presence of several antagonists of the NK1 receptor.
For each case, the presence or absence of amplification of the gene encoding for the NK1 receptor was determined.
In order to determine the presence of the amplification (increase in the number of copies) of the gene encoding the NK1 receptor (TAC1R), it was used the comparative genomic hybridization technique (CGH Array). Firstly genomic DNA was extracted from each case. Later, it was performed the marking and hybridization of the DNA of each sample together with DNA of a commercial reference without genomic alterations (from masculine or feminine sex, depending on the gender of the patient from whom the samples were obtained). The Array is Sureprint G3 Human CGH Microarray from the company Agilent was used, with an average separation between probes of 5.3Kb and 4.6Kb for the genes RefSeq. The reading of the microarray was done with the DNA Microarray Scanner G2565CA from Agilent, at a resolution of 3 µm. The analysis of the results was performed with the software Cytogenomics v 2.0.6.0 from Agilent with ADM-2: 6.0; Centralization: ON (Threshold: 6.0, Bin size: 10); Fuzzy zero: ON; Aberration filters: ON (minProbes=5 and minAvgAbsLopRatio= 0,5); Feature Level Filters : ON. The genomic coordinates are coincident with the NCBI36genome (hg18). Cases were distributed in two groups: Group I for those cases without the amplification of the gene encoding the NK1 receptor (locus 2p13.1-p12), and Group II for those cases with amplification of the gene encoding the NK1receptor (locus 2p13.1-p12).
The antibody against NK1 receptor (Table 36) was used at 1/50 concentration. The percentages of inhibition are expressed in percentages of variation in relation to control ± standard deviation.

Endometrium carcinoma = experiment: cells; conditions: Homo sapiens, 1 micromolar
Procedure: as §1, §2, §3

Renal cell carcinoma = experiment: Inhibition of primary tumor cell cultures (48 hours) vs NK1 receptor immunostaining (Example 1); type: cell-based; conditions: Homo sapiens, 1 micromolar, read-out: Percentage of inhibition of cell cultures
Procedure: as §1, §2, §3

Myeloma = experiment: as above; type: cell-based; conditions: Homo sapiens, 1 micromolar, read-out: Percentage of inhibition of cell cultures
Procedure: as §1, §2, §3

Ewing Sarcoma = experiment: as above; type: cell-based; conditions: Homo sapiens, 1 micromolar, read-out: Percentage of inhibition of cell cultures
Procedure: as §1, §2, §3

Prostate carcinoma = experiment: cells; conditions: Homo sapiens, 1 micromolar
Procedure: as §1, §2, §3

[3] = tested on: Lung carcinoma (small cell lung carcinoma); experiment: Inhibition of primary tumor cell cultures vs Kras mutation (Example 2); type: cell-based, human; conditions: Homo sapiens, Cases with Kras mutated; 100 micromolar; read-out: Percentage of inhibition of cell cultures
Procedure: as §4, §5, §6, §7

Pancreatic carcinoma = experiment: Inhibition of primary tumor cell cultures (48 hours) vs NK1 receptor immunostaining (Example 1); type: cell-based; conditions: Homo sapiens, 1 micromolar, read-out: Percentage of inhibition of cell cultures
Procedure: as §1, §2, §3

[4] = tested on: Malignant Fibrous Histiocytoma; experiment: as above; type: cell-based; conditions: Homo sapiens, 1 micromolar, read-out: Percentage of inhibition of cell cultures
Procedure: as §1, §2, §3

[5] = tested on: human primary tumor cells; experiment: Inhibition of primary tumor cell cultures vs absence or presence of ERK  protein (Example 3; tumor type per table line); type: cell-based; conditions: Non Hodgkin Lymphoma T (diffuse T cell lymphoma), 100 micromolar
[6] = tested on: Lung carcinoma (non small cell type); experiment: Inhibition of primary tumor cell cultures (48 hours) vs NK1 receptor immunostaining (Example 1); type: cell-based; conditions: Homo sapiens, 1 micromolar, read-out: Percentage of inhibition of cell cultures
Procedure: as §1, §2, §3

[7] = tested on: Thyroid carcinoma (papillary type); experiment: as above; type: cell-based; conditions: Homo sapiens, 1 micromolar, read-out: Percentage of inhibition of cell cultures
Procedure: as §1, §2, §3

Leukemia B = experiment: as above; type: cell-based; conditions: Homo sapiens, 1 micromolar, read-out: Percentage of inhibition of cell cultures
Procedure: as §1, §2, §3

[8] = tested on: Thyroid carcinoma (follicular carcinoma); experiment: Inhibition of primary tumor cell cultures vs Kras mutation (Example 2); type: cell-based, human; conditions: Homo sapiens, Cases with Kras mutated; 100 micromolar; read-out: Percentage of inhibition of cell cultures
Procedure: as §4, §5, §6, §7

[9] = NK1 receptor immunostaining Group 1 (less than 20% of the cells)
[10] = NK1 receptor immunostaining Group 2 (20-80% of the cells)
[11] = NK1 receptor immunostaining Group 3 (more than 80% of the cells)
[12] = NK1 receptor immunostaining Intensity grade 1
[13] = NK1 receptor immunostaining Intensity grade 2
[14] = NK1 receptor immunostaining Intensity grade 3
[15] = read-out: Percentage of inhibition of cell cultures, NK1 receptor immunostaining Group 1 (less than 20% of the cells)
[16] = read-out: Percentage of inhibition of cell cultures, NK1 receptor immunostaining Group 2 (20-80% of the cells)
[17] = read-out: Percentage of inhibition of cell cultures, NK1 receptor immunostaining Group 3 (more than 80% of the cells)
[18] = read-out: Percentage of inhibition of cell cultures, NK1 receptor immunostaining Intensity grade 1
[19] = read-out: Percentage of inhibition of cell cultures, NK1 receptor immunostaining Intensity grade 2

Question: C[C@@H](O[C@H]1OCCN(Cc2n[nH]c(=O)[nH]2)[C@H]1c1ccc(F)cc1)c1cc(C(F)(F)F)cc(C(F)(F)F)c1 [Aprepitant] was tested. Which inhibition at 1 µM (Glioma; [9]) did it give?
Answer: The inhibition at 1 µM was 11 ± 4%.

Question: What about the inhibition at 1 µM (Glioma; [10]) of the same compound?
Answer: The inhibition at 1 µM was 47 ± 4%.

Question: And the inhibition at 1 µM (Glioma; [11])?
Answer: Its inhibition at 1 µM is 94 ± 6%.

Question: And the inhibition at 1 µM (Glioma; [12])?
Answer: Its inhibition at 1 µM is 28 ± 7%.

Question: And the inhibition at 1 µM (Glioma; [13])?
Answer: The inhibition at 1 µM was 55 ± 6%.

Question: What about the inhibition at 1 µM (Glioma; [14]) of the same compound?
Answer: The inhibition at 1 µM was 97 ± 4%.

Question: And the inhibition at 100 µM [1]?
Answer: The inhibition at 100 µM was 25 ± 4%.

Question: And the “Percentage of inhibition of cell cultures” value [2]?
Answer: Its value is 94±7 percentage.

Question: And the inhibition at 1 µM (Endometrium carcinoma; [15])?
Answer: The inhibition at 1 µM was 12 ± 2%.

Question: And the inhibition at 1 µM (Endometrium carcinoma; [16])?
Answer: Its inhibition at 1 µM is 49 ± 2%.

Question: And the inhibition at 1 µM (Endometrium carcinoma; [17])?
Answer: Its inhibition at 1 µM is 95 ± 4%.

Question: And the inhibition at 1 µM (Endometrium carcinoma; [18])?
Answer: The inhibition at 1 µM was 25 ± 7%.

Question: What about the inhibition at 1 µM (Endometrium carcinoma; [19]) of the same compound?
Answer: The inhibition at 1 µM was 59 ± 5%.

Question: What about the inhibition at 1 µM (Renal cell carcinoma; [9]) of the same compound?
Answer: Its inhibition at 1 µM is 10 ± 3%.

Question: What about the inhibition at 1 µM (Renal cell carcinoma; [10]) of the same compound?
Answer: The inhibition at 1 µM was 45 ± 4%.

Question: What about the inhibition at 1 µM (Renal cell carcinoma; [11]) of the same compound?
Answer: The inhibition at 1 µM was 93 ± 6%.

Question: What about the inhibition at 1 µM (Renal cell carcinoma; [12]) of the same compound?
Answer: The inhibition at 1 µM was 27 ± 6%.

Question: What about the inhibition at 1 µM (Renal cell carcinoma; [13]) of the same compound?
Answer: Its inhibition at 1 µM is 57 ± 6%.

Question: And the inhibition at 1 µM (Renal cell carcinoma; [14])?
Answer: Its inhibition at 1 µM is 95 ± 6%.

Question: And the inhibition at 1 µM (Myeloma; [9])?
Answer: Its inhibition at 1 µM is 11 ± 2%.

Question: What about the inhibition at 1 µM (Myeloma; [10]) of the same compound?
Answer: Its inhibition at 1 µM is 46 ± 5%.

Question: What about the inhibition at 1 µM (Myeloma; [11]) of the same compound?
Answer: Its inhibition at 1 µM is 95 ± 4%.

Question: And the inhibition at 1 µM (Myeloma; [12])?
Answer: Its inhibition at 1 µM is 28 ± 5%.

Question: What about the inhibition at 1 µM (Myeloma; [13]) of the same compound?
Answer: The inhibition at 1 µM was 55 ± 3%.

Question: What about the inhibition at 1 µM (Myeloma; [14]) of the same compound?
Answer: Its inhibition at 1 µM is 92 ± 5%.

Question: What about the inhibition at 1 µM (Ewing Sarcoma; [9]) of the same compound?
Answer: The inhibition at 1 µM was 11 ± 2%.

Question: And the inhibition at 1 µM (Ewing Sarcoma; [10])?
Answer: Its inhibition at 1 µM is 48 ± 6%.

Question: And the inhibition at 1 µM (Ewing Sarcoma; [11])?
Answer: Its inhibition at 1 µM is 94 ± 6%.

Question: What about the inhibition at 1 µM (Ewing Sarcoma; [12]) of the same compound?
Answer: The inhibition at 1 µM was 27 ± 6%.

Question: What about the inhibition at 1 µM (Ewing Sarcoma; [13]) of the same compound?
Answer: The inhibition at 1 µM was 57 ± 4%.

Question: And the inhibition at 1 µM (Ewing Sarcoma; [14])?
Answer: The inhibition at 1 µM was 95 ± 6%.

Question: What about the inhibition at 1 µM (Prostate carcinoma; [15]) of the same compound?
Answer: The inhibition at 1 µM was 11 ± 3%.

Question: What about the inhibition at 1 µM (Prostate carcinoma; [16]) of the same compound?
Answer: The inhibition at 1 µM was 46 ± 6%.

Question: What about the inhibition at 1 µM (Prostate carcinoma; [17]) of the same compound?
Answer: Its inhibition at 1 µM is 95 ± 5%.

Question: And the inhibition at 1 µM (Prostate carcinoma; [18])?
Answer: Its inhibition at 1 µM is 27 ± 5%.

Question: What about the inhibition at 1 µM (Prostate carcinoma; [19]) of the same compound?
Answer: The inhibition at 1 µM was 58 ± 6%.

Question: And the inhibition at 1 µM (Prostate carcinoma; read-out: Percentage of inhibition of cell cultures, NK1 receptor immunostaining Intensity grade 3)?
Answer: Its inhibition at 1 µM is 93 ± 7%.

Question: What about the inhibition at 100 µM [3] of the same compound?
Answer: The inhibition at 100 µM was 22 ± 4%.

Question: And the inhibition at 1 µM (Pancreatic carcinoma; [9])?
Answer: Its inhibition at 1 µM is 12 ± 3%.

Question: What about the inhibition at 1 µM (Pancreatic carcinoma; [10]) of the same compound?
Answer: Its inhibition at 1 µM is 47 ± 1%.

Question: What about the inhibition at 1 µM (Pancreatic carcinoma; [11]) of the same compound?
Answer: Its inhibition at 1 µM is 94 ± 6%.

Question: What about the inhibition at 1 µM (Pancreatic carcinoma; [12]) of the same compound?
Answer: The inhibition at 1 µM was 27 ± 7%.

Question: What about the inhibition at 1 µM (Pancreatic carcinoma; [13]) of the same compound?
Answer: Its inhibition at 1 µM is 56 ± 5%.

Question: What about the inhibition at 1 µM (Pancreatic carcinoma; [14]) of the same compound?
Answer: Its inhibition at 1 µM is 94 ± 3%.

Question: What about the inhibition at 1 µM [4, 9] of the same compound?
Answer: The inhibition at 1 µM was 11 ± 2%.

Question: What about the inhibition at 1 µM [4, 10] of the same compound?
Answer: The inhibition at 1 µM was 47 ± 2%.

Question: What about the inhibition at 1 µM [4, 11] of the same compound?
Answer: Its inhibition at 1 µM is 95 ± 6%.

Question: What about the inhibition at 1 µM [4, 12] of the same compound?
Answer: The inhibition at 1 µM was 28 ± 7%.

Question: And the inhibition at 1 µM [4, 13]?
Answer: The inhibition at 1 µM was 56 ± 5%.

Question: And the inhibition at 1 µM [4, 14]?
Answer: The inhibition at 1 µM was 94 ± 3%.

Question: And the “Percentage of inhibition of cell cultures” value ([5]; cases with presence of ERK)?
Answer: The value was 94±4 percentage.

Question: And the “Percentage of inhibition of cell cultures” value ([5]; cases without presence of ERK)?
Answer: The value was 23±3 percentage.

Question: And the inhibition at 1 µM [6, 9]?
Answer: The inhibition at 1 µM was 9 ± 3%.

Question: And the inhibition at 1 µM [6, 10]?
Answer: The inhibition at 1 µM was 41 ± 3%.

Question: And the inhibition at 1 µM [6, 11]?
Answer: The inhibition at 1 µM was 94 ± 7%.

Question: And the inhibition at 1 µM [6, 12]?
Answer: The inhibition at 1 µM was 28 ± 5%.

Question: And the inhibition at 1 µM [6, 13]?
Answer: The inhibition at 1 µM was 57 ± 5%.

Question: What about the inhibition at 1 µM [6, 14] of the same compound?
Answer: Its inhibition at 1 µM is 95 ± 3%.

Question: And the inhibition at 1 µM [7, 9]?
Answer: Its inhibition at 1 µM is 10 ± 3%.

Question: What about the inhibition at 1 µM [7, 10] of the same compound?
Answer: The inhibition at 1 µM was 47 ± 3%.

Question: And the inhibition at 1 µM [7, 11]?
Answer: The inhibition at 1 µM was 97 ± 6%.

Question: What about the inhibition at 1 µM [7, 12] of the same compound?
Answer: The inhibition at 1 µM was 27 ± 6%.

Question: What about the inhibition at 1 µM [7, 13] of the same compound?
Answer: The inhibition at 1 µM was 56 ± 4%.

Question: What about the inhibition at 1 µM (Leukemia B; [9]) of the same compound?
Answer: Its inhibition at 1 µM is 11 ± 2%.

Question: What about the inhibition at 1 µM (Leukemia B; [10]) of the same compound?
Answer: Its inhibition at 1 µM is 43 ± 4%.

Question: And the inhibition at 1 µM (Leukemia B; [11])?
Answer: The inhibition at 1 µM was 95 ± 4%.

Question: What about the inhibition at 1 µM (Leukemia B; [12]) of the same compound?
Answer: The inhibition at 1 µM was 28 ± 5%.

Question: What about the inhibition at 1 µM (Leukemia B; [13]) of the same compound?
Answer: Its inhibition at 1 µM is 54 ± 5%.

Question: And the inhibition at 1 µM (Leukemia B; [14])?
Answer: Its inhibition at 1 µM is 95 ± 6%.

Question: And the inhibition at 100 µM [8]?
Answer: The inhibition at 100 µM was 26 ± 3%.
